How the values were obtained:
Assay in all cases: KINOMEscan
Type in all cases: binding
Details in all cases: 1.0 µM
FLT3(K663Q) = biological target: T1, FLT3(K663Q) (Homo sapiens, UniProt P36888, K663Q)
T1 construct: purchased Eurofins/DiscoverX KINOMEscan scanMAX
Method: (§1) Kinase retention to the immobilized ligand is then measured using quantitative real-time PCR for each kinase-specific DNA barcode.

FGR = biological target: T2, FGR (Homo sapiens, UniProt P09769)
T2 construct: purchased Eurofins/DiscoverX KINOMEscan scanMAX
Method: as §1

[1] = biological target: T3, ABL1(H396P)-nonphosphorylated (Homo sapiens, UniProt P00519, H396P)
T3 construct: purchased Eurofins/DiscoverX KINOMEscan scanMAX
Method: as §1

RET(V804L) = biological target: T4, RET(V804L) (Homo sapiens, UniProt P07949, V804L)
T4 construct: purchased Eurofins/DiscoverX KINOMEscan scanMAX
Method: as §1

MYO3B = biological target: T5, MYO3B (Homo sapiens, UniProt Q8WXR4)
T5 construct: purchased Eurofins/DiscoverX KINOMEscan scanMAX
Method: as §1

AXL = biological target: T6, AXL (Homo sapiens, UniProt P30530)
T6 construct: purchased Eurofins/DiscoverX KINOMEscan scanMAX
Method: as §1

GSK3A = biological target: T7, GSK3A (Homo sapiens, UniProt P49840)
T7 construct: purchased Eurofins/DiscoverX KINOMEscan scanMAX
Method: as §1

LATS2 = biological target: T8, LATS2 (Homo sapiens, UniProt Q9NRM7)
T8 construct: purchased Eurofins/DiscoverX KINOMEscan scanMAX
T8 sequence (Q9NRM7 whole entry): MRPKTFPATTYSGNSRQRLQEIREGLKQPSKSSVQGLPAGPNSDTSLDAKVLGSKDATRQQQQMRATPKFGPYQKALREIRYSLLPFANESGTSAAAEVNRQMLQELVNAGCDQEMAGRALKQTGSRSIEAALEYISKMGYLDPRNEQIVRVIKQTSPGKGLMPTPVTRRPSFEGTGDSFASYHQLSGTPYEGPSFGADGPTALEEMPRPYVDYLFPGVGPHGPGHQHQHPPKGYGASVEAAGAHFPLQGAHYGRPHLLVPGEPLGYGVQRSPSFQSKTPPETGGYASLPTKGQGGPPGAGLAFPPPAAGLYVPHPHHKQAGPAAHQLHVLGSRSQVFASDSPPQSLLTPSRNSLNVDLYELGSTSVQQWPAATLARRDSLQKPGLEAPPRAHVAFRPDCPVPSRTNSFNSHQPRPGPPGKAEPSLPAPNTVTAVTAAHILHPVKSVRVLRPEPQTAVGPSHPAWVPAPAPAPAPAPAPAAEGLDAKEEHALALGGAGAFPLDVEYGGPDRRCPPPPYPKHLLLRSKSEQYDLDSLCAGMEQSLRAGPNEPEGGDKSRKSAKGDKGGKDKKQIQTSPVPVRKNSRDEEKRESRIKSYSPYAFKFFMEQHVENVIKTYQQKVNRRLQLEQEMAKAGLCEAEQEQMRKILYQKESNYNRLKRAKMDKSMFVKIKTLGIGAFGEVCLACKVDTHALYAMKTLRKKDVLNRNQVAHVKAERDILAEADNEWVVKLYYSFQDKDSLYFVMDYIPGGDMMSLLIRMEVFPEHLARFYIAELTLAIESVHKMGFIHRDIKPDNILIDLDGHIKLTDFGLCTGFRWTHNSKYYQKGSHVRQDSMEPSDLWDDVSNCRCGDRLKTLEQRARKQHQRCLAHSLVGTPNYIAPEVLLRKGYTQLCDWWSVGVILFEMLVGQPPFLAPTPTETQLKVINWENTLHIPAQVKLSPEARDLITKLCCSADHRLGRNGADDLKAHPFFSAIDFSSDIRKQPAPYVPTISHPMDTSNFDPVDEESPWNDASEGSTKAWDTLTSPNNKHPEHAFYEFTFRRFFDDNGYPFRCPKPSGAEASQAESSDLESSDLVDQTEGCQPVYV
Method: as §1

MKK7 = biological target: T9, MKK7 (Homo sapiens, UniProt O14733)
T9 construct: purchased Eurofins/DiscoverX KINOMEscan scanMAX
T9 sequence (O14733 whole entry): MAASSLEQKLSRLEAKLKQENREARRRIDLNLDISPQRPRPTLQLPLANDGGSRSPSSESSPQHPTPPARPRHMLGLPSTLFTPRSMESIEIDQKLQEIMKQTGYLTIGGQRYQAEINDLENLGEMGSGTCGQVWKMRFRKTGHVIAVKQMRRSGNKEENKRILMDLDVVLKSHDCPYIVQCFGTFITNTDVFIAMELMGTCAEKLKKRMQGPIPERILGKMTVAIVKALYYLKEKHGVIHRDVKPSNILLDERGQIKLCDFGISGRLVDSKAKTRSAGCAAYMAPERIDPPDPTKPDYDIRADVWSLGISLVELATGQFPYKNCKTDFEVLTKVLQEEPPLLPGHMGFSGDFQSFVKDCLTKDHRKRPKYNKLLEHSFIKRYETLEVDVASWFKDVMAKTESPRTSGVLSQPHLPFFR
Method: as §1

ERBB2 = biological target: T10, ERBB2 (Homo sapiens, UniProt P04626)
T10 construct: purchased Eurofins/DiscoverX KINOMEscan scanMAX
Method: as §1

RIOK2 = biological target: T11, RIOK2 (Homo sapiens, UniProt Q9BVS4)
T11 construct: purchased Eurofins/DiscoverX KINOMEscan scanMAX
Method: as §1

MST1R = biological target: T12, MST1R (Homo sapiens, UniProt Q04912)
T12 construct: purchased Eurofins/DiscoverX KINOMEscan scanMAX
T12 sequence (Q04912 25-1400): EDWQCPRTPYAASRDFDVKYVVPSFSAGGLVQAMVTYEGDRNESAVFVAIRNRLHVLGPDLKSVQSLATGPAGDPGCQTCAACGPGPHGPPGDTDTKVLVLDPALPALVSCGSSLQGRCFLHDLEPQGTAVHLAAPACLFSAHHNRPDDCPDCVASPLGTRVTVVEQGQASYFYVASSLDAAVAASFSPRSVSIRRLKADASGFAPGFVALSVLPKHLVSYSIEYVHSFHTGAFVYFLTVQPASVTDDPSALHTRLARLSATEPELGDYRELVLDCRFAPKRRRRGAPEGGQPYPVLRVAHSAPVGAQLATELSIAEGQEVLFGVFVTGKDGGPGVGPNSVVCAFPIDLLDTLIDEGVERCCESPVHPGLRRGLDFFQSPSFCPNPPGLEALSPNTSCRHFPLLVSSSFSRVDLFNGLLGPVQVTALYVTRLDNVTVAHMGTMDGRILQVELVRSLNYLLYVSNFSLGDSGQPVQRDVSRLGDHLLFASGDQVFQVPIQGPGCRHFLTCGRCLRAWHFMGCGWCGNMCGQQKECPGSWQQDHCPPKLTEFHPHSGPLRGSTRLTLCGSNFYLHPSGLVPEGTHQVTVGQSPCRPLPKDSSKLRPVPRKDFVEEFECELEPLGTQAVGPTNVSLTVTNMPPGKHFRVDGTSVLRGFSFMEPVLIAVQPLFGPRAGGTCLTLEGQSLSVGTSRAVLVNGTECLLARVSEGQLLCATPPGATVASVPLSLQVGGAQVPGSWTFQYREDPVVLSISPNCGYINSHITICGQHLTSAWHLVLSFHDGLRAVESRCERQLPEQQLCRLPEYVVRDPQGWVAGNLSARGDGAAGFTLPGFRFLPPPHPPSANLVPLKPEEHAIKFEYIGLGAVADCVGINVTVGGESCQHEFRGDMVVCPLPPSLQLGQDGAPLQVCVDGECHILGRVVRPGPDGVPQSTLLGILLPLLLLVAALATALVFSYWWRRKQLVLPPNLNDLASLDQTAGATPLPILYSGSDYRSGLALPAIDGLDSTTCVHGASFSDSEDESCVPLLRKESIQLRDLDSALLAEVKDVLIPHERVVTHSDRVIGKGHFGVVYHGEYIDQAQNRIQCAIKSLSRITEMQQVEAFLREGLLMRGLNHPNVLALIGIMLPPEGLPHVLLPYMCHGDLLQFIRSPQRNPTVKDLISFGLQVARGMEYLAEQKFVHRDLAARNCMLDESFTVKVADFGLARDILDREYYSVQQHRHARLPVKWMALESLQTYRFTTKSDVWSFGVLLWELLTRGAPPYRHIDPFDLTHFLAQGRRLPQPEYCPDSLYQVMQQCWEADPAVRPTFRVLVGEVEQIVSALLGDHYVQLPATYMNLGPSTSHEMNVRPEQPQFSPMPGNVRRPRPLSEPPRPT
Method: as §1

NEK5 = biological target: T13, NEK5 (Homo sapiens, UniProt Q6P3R8)
T13 construct: purchased Eurofins/DiscoverX KINOMEscan scanMAX
Method: as §1

PDPK1 = biological target: T14, PDPK1 (Homo sapiens, UniProt O15530)
T14 construct: purchased Eurofins/DiscoverX KINOMEscan scanMAX
Method: as §1

NLK = biological target: T15, NLK (Homo sapiens, UniProt Q9UBE8)
T15 construct: purchased Eurofins/DiscoverX KINOMEscan scanMAX
Method: as §1

AKT1 = biological target: T16, AKT1 (Homo sapiens, UniProt P31749)
T16 construct: purchased Eurofins/DiscoverX KINOMEscan scanMAX
Method: as §1

MET(M1250T) = biological target: T17, MET(M1250T) (Homo sapiens, UniProt P08581, M1250T)
T17 construct: purchased Eurofins/DiscoverX KINOMEscan scanMAX
Method: as §1

MAPKAPK5 = biological target: T18, MAPKAPK5 (Homo sapiens, UniProt Q8IW41)
T18 construct: purchased Eurofins/DiscoverX KINOMEscan scanMAX
Method: as §1

STK35 = biological target: T19, STK35 (Homo sapiens, UniProt Q8TDR2)
T19 construct: purchased Eurofins/DiscoverX KINOMEscan scanMAX
Method: as §1

MARK4 = biological target: T20, MARK4 (Homo sapiens, UniProt Q96L34)
T20 construct: purchased Eurofins/DiscoverX KINOMEscan scanMAX
Method: as §1

TNNI3K = biological target: T21, TNNI3K (Homo sapiens, UniProt Q59H18)
T21 construct: purchased Eurofins/DiscoverX KINOMEscan scanMAX
Method: as §1

TAOK3 = biological target: T22, TAOK3 (Homo sapiens, UniProt Q9H2K8)
T22 construct: purchased Eurofins/DiscoverX KINOMEscan scanMAX
Method: as §1

DYRK1A = biological target: T23, DYRK1A (Homo sapiens, UniProt Q13627)
T23 construct: purchased Eurofins/DiscoverX KINOMEscan scanMAX
Method: as §1

TEC = biological target: T24, TEC (Homo sapiens, UniProt P42680)
T24 construct: purchased Eurofins/DiscoverX KINOMEscan scanMAX
Method: as §1

NEK6 = biological target: T25, NEK6 (Homo sapiens, UniProt Q9HC98)
T25 construct: purchased Eurofins/DiscoverX KINOMEscan scanMAX
T25 sequence (Q9HC98 whole entry): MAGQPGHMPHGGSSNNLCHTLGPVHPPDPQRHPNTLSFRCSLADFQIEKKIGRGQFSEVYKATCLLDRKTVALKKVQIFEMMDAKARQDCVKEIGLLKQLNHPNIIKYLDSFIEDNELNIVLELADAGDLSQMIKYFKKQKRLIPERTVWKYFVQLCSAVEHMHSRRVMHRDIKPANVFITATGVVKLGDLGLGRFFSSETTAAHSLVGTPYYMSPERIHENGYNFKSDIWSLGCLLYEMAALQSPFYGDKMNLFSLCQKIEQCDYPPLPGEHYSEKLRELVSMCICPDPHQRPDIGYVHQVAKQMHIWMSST
Method: as §1

SRMS = biological target: T26, SRMS (Homo sapiens, UniProt Q9H3Y6)
T26 construct: purchased Eurofins/DiscoverX KINOMEscan scanMAX
Method: as §1

CAMK2G = biological target: T27, CAMK2G (Homo sapiens, UniProt Q13555)
T27 construct: purchased Eurofins/DiscoverX KINOMEscan scanMAX
Method: as §1

VRK2 = biological target: T28, VRK2 (Homo sapiens, UniProt Q86Y07)
T28 construct: DNA tag (qPCR barcode); purchased Eurofins/DiscoverX KINOMEscan scanMAX
Method: as §1

SgK110 = biological target: T29, SgK110 (Homo sapiens, UniProt P0C264)
T29 construct: purchased Eurofins/DiscoverX KINOMEscan scanMAX
Method: as §1

CLK2 = biological target: T30, CLK2 (Homo sapiens, UniProt P49760)
T30 construct: purchased Eurofins/DiscoverX KINOMEscan scanMAX
Method: as §1

PAK3 = biological target: T31, PAK3 (Homo sapiens, UniProt O75914)
T31 construct: purchased Eurofins/DiscoverX KINOMEscan scanMAX
T31 sequence (O75914 whole entry): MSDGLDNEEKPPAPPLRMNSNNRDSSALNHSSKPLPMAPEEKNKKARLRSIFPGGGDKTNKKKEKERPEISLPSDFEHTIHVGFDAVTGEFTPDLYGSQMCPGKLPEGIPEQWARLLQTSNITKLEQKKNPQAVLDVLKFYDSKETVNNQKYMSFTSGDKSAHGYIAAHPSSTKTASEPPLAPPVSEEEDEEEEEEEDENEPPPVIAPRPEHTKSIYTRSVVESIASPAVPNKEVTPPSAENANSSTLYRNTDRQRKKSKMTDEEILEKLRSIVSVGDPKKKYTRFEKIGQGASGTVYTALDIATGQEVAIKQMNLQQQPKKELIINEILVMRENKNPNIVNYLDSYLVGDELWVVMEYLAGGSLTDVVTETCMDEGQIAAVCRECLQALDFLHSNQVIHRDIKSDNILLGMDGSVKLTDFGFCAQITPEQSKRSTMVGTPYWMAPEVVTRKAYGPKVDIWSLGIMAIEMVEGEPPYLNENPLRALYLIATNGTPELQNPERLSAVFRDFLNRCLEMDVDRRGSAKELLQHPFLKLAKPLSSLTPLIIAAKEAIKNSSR
Method: as §1

EPHA5 = biological target: T32, EPHA5 (Homo sapiens, UniProt P54756)
T32 construct: purchased Eurofins/DiscoverX KINOMEscan scanMAX
Method: as §1

BRAF(V600E) = biological target: T33, BRAF(V600E) (Homo sapiens, UniProt P15056, V600E)
T33 construct: purchased Eurofins/DiscoverX KINOMEscan scanMAX
Method: as §1

[2] = biological target: T34, ABL1(F317I)-nonphosphorylated (Homo sapiens, UniProt P00519, F317I)
T34 construct: purchased Eurofins/DiscoverX KINOMEscan scanMAX
Method: as §1

STK16 = biological target: T35, STK16 (Homo sapiens, UniProt O75716)
T35 construct: purchased Eurofins/DiscoverX KINOMEscan scanMAX
T35 sequence (O75716 whole entry): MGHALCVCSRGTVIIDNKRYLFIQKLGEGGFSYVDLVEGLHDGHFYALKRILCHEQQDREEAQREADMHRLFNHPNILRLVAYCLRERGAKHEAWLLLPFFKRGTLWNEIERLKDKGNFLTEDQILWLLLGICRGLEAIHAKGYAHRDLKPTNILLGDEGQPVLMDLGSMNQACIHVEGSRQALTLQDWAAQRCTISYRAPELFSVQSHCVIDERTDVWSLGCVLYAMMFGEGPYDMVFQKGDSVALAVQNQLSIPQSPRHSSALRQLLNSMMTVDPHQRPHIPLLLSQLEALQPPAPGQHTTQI
Method: as §1

FLT3(N841I) = biological target: T36, FLT3(N841I) (Homo sapiens, UniProt P36888, N841I)
T36 construct: purchased Eurofins/DiscoverX KINOMEscan scanMAX
Method: as §1

MYLK4 = biological target: T37, MYLK4 (Homo sapiens, UniProt Q86YV6)
T37 construct: purchased Eurofins/DiscoverX KINOMEscan scanMAX
Method: as §1

TAOK1 = biological target: T38, TAOK1 (Homo sapiens, UniProt Q7L7X3)
T38 construct: purchased Eurofins/DiscoverX KINOMEscan scanMAX
Method: as §1

EPHA3 = biological target: T39, EPHA3 (Homo sapiens, UniProt P29320)
T39 construct: purchased Eurofins/DiscoverX KINOMEscan scanMAX
T39 sequence (P29320 21-983): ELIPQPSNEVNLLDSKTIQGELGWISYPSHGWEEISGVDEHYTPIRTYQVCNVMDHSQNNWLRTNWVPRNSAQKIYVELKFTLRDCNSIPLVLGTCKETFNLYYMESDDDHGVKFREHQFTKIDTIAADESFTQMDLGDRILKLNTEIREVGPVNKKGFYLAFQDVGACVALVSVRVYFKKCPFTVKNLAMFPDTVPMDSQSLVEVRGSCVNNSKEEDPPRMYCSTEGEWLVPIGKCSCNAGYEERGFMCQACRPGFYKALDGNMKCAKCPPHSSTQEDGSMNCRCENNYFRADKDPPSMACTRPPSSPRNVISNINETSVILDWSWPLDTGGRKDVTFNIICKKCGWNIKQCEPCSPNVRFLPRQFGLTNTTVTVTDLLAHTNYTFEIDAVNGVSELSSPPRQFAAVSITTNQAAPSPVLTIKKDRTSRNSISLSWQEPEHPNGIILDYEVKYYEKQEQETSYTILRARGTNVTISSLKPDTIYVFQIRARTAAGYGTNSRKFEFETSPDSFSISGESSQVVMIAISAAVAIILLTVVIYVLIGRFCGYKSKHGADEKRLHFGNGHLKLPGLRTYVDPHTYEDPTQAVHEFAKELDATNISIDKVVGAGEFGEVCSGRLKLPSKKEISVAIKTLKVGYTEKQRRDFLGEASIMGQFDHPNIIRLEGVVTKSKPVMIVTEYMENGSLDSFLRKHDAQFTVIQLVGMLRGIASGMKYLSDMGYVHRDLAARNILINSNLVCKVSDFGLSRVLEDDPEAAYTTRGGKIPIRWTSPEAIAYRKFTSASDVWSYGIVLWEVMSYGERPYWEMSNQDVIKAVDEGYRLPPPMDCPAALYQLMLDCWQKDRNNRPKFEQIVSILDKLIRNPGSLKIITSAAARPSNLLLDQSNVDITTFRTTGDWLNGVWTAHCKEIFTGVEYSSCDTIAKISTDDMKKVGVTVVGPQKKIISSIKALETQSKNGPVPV
Method: as §1

FGFR3(G697C) = biological target: T40, FGFR3(G697C) (Homo sapiens, UniProt P22607, G697C)
T40 construct: purchased Eurofins/DiscoverX KINOMEscan scanMAX
Method: as §1

TAK1 = biological target: T41, TAK1 (Homo sapiens, UniProt O43318)
T41 construct: purchased Eurofins/DiscoverX KINOMEscan scanMAX
Method: as §1

ROCK1 = biological target: T42, ROCK1 (Homo sapiens, UniProt Q13464)
T42 construct: purchased Eurofins/DiscoverX KINOMEscan scanMAX
Method: as §1

## CN1CCN(C2CCC(n3cc(-c4ccc(Oc5ccccc5)cc4)c4c(N)ncnc43)CC2)CC1 (stereo not drawn) [A-419259]
FLT3(K663Q)
  % Control: 5.6%
FGR
  % Control: 0.85%
[1]
  % Control: 0.2%
RET(V804L)
  % Control: 24%
MYO3B
  % Control: 17%
AXL
  % Control: 6.1%
GSK3A
  % Control: 100%
LATS2
  % Control: 18%
MKK7
  % Control: 46%
ERBB2
  % Control: 2.7%
RIOK2
  % Control: 100%
MST1R
  % Control: 96%
NEK5
  % Control: 100%
PDPK1
  % Control: 100%
NLK
  % Control: 83%
AKT1
  % Control: 100%
MET(M1250T)
  % Control: 59%
MAPKAPK5
  % Control: 100%
STK35
  % Control: 27%
MARK4
  % Control: 97%
TNNI3K
  % Control: 91%
TAOK3
  % Control: 100%
DYRK1A
  % Control: 99%
TEC
  % Control: 9%
NEK6
  % Control: 65%
SRMS
  % Control: 0%
CAMK2G
  % Control: 100%
VRK2
  % Control: 39%
SgK110
  % Control: 100%
CLK2
  % Control: 100%
PAK3
  % Control: 36%
EPHA5
  % Control: 80%
BRAF(V600E)
  % Control: 45%
[2]
  % Control: 2.5%
STK16
  % Control: 100%
FLT3(N841I)
  % Control: 5.3%
MYLK4
  % Control: 96%
TAOK1
  % Control: 100%
EPHA3
  % Control: 95%
FGFR3(G697C)
  % Control: 27%
TAK1
  % Control: 77%
ROCK1
  % Control: 90%

Reference: paper PMC6886798, “Expression of myeloid Src-family kinases is associated with poor prognosis in AML and influences Flt3-ITD kinase inhibitor acquired resistance” (PLoS ONE, 2019)
